Results as given in patent publication US6620828B2, “Thiazole compounds and pharmaceutical compositions for inhibiting protein kinases and methods for their use” (Agouron Pharmaceuticals, Inc., priority 1999, dated 2003).

Experiments:
Format in all cases: biochemical
CDK4/Cyclin D3 complex = target: T1, CDK4/Cyclin D3 complex (Homo sapiens, UniProt P11802); experiment: CDK4/Cyclin D assay; conditions: 1.0 μM; combinatorial library compounds
T1 construct: made in house; host or cells: insect cells co-infected with baculovirus vectors
Procedure: CDK4/Cyclin D Construct for Assay: A complex of human CDK4 and cyclin D3, or a complex of cyclin DI and a fusion protein of human CDK4 and glutathione-S-transferase (GST-CDK4), was purified using traditional biochemical chromatographic techniques from insect cells that had been co-infected with the corresponding baculovirus expression vectors.
CDK2/Cyclin A and CDK4/Cyclin D Assays
Cyclin-dependent kinase activity was measured by quantifying the enzyme-catalyzed, time-dependent incorporation of radioactive phosphate from [^32P]ATP into a recombinant fragment of the retinoblastoma protein. Unless noted otherwise, assays were performed in 96-well plates in a total volume of 50 μL, in the presence of 10 mM HEPES (N-[2-hydroxyethyl]piperazine-N′-[2-ethanesulfonic acid]) (pH 7.4), 10 mM MgCl2, 25 μM adenosine triphosphate (ATP), 1 mg/mL ovalbumin, 5 μg/mL leupeptin, 1 mM dithiothreitol, 10 mM β-glycerophosphate, 0.1 mM sodium vanadate, 1 mM sodium fluoride, 2.5 mM ethylene glycol-bis(β-aminoethyl ether)-N,N,N′N′-tetraacetic acid (EGTA), 2% (v/v) dimethylsulfoxide, and 0.03-0.2 μCi [^32P]ATP. The substrate (0.3-0.5 μg) was purified recombinant retinoblastoma protein fragment (Rb) (residues 386-928 of the native retinoblastoma protein; 62.3 kDa, containing the majority of the phosphorylation sites found in the native 106-kDa protein, as well as a tag of six histidine residues for ease of purification). Reactions were initiated with CDK2 (150 nM CDK2/Cyclin A complex) or CDK4 (50 nM CDK4/Cyclin D3 complex), incubated at 30° C., and terminated after 20 minutes by the addition of ethylenediaminetetraacetic acid EDTA) to 250 mM. The phosphorylated substrate was then captured on a nitrocellulose membrane using a 96-well filtration manifold, and unincorporated radioactivity was removed by repeated washing with 0.85% phosphoric acid. Radioactivity was quantified by exposing the dried nitrocellulose membranes to a phosphorimager. Apparent Ki values were measured by assaying enzyme activity in the presence of different compound concentrations and subtracting the background radioactivity measured in the absence of enzyme. The kinetic parameters (kcat, Km for ATP) were measured for each enzyme under the usual assay conditions by determining the dependence of initial rates on ATP concentration. The data were fit to an equation for competitive inhibition using Kaleidagraph (Synergy Software), or were fit to an equation for competitive tight-binding inhibition using the software KineTic (BioKin, Ltd.). Measured Ki values for known inhibitors against CDK4 and CDK2 agreed with published IC50 values. The specific activity of CDK4 was the same whether complexed to full-length cyclin D3 or the truncated Cyclin D3 construct; both complexes also yielded very similar Ki values for selected inhibitors.

CDK2/Cyclin A complex = CDK2/Cyclin A complex (Homo sapiens, UniProt P24941); experiment: CDK2/Cyclin A assay; conditions: 1.0 μM; combinatorial library compounds
Summary of the method: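 Radiometric assay: 150 nM CDK2/cyclin A (insect-cell CDK2, truncated cyclin A) phosphorylates His-tagged Rb fragment (residues 386-928) with 25 μM ATP plus [32P]ATP, pH 7.4 HEPES, 2% DMSO, 30 °C for 20 min. Filter-captured product counted by phosphorimager; apparent Ki from competitive or tight-binding inhibition fits.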

FL-CHK1 = target: T2, FL-CHK1 (Homo sapiens, UniProt O14757); experiment: CHK1 assay; conditions: 20 μM; combinatorial library compounds
T2 construct: C-terminally His-tagged full-length human CHK1 (FL-CHK1); 6xHis (C); made in house; host or cells: baculovirus/insect cells
T2 sequence (O14757 1-476): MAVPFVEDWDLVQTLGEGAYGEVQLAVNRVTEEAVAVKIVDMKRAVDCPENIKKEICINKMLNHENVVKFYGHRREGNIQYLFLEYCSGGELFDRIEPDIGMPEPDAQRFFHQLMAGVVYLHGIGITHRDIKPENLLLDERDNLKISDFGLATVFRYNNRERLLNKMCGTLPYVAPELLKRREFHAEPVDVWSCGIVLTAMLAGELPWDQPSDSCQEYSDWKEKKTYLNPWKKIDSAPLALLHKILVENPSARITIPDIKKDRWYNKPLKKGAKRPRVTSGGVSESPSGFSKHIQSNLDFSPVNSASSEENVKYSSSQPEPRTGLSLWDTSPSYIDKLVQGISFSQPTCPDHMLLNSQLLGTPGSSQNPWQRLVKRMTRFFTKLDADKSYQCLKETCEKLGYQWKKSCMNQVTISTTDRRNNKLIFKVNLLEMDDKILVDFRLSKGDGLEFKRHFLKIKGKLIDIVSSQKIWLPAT
Summary of the method: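 Full-length human CHK1 with C-terminal 6×His tag, made in baculovirus/insect cells, 10 nM, phosphorylating 0.125 mM Syntide-2 with 0.15 mM ATP in 50 mM Tris pH 7.5, 25 mM MgCl2, 400 mM NaCl. PK/LDH-coupled NADH oxidation read at 340 nm. Ki from initial rates over varied compound concentrations.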

[1] = target: T3, phosphorylated VEGF-R2Δ50 (FLVK-P) (Homo sapiens, UniProt P35968, DEL940-989/E990V); experiment: VEGF-R2 coupled spectrophotometric (FLVK-P) assay; conditions: read-out: VEGF % inhibition at 20 μM, 20 μM; combinatorial library compounds
T3 construct: VEGF-R2Δ50 contains residues 806-939 and 990-1171; made in house; host or cells: baculovirus/insect cells
Summary of the method: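 Baculovirus-expressed human VEGF-R2Δ50 (residues 806-939/990-1171, E990V) was autophosphorylated with 3 mM ATP, 40 mM MgCl2 for 2 h at 4° C. ADP formation was coupled via PK/LDH to NADH oxidation, read at 340 nm, with 5.1 mM poly(E4Y1), 1 mM ATP, 25 mM MgCl2, Hepes pH 7.5. Ki came from activity across compound concentrations.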

T3 sequence (P35968 with tags, fused parts or gaps DEL940-989/E990V limits assumed): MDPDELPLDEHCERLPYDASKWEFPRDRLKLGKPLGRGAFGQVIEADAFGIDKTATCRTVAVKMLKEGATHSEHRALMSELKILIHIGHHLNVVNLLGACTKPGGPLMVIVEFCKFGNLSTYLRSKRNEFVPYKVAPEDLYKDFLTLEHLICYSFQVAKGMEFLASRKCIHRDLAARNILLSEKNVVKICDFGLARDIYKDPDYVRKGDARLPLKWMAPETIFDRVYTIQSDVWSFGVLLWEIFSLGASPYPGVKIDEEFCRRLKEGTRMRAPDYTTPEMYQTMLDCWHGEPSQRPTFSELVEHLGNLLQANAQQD
T1 sequence (P11802 whole entry): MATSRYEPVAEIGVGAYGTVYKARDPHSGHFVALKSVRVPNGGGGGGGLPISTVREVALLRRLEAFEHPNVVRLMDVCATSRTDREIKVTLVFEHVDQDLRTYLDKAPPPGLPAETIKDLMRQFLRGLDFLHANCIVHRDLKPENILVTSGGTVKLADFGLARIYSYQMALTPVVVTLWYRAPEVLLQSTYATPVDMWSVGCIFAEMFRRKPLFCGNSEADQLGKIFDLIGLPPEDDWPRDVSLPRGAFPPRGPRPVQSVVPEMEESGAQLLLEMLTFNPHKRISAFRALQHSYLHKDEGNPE
T1 sequence (P30281 whole entry partner): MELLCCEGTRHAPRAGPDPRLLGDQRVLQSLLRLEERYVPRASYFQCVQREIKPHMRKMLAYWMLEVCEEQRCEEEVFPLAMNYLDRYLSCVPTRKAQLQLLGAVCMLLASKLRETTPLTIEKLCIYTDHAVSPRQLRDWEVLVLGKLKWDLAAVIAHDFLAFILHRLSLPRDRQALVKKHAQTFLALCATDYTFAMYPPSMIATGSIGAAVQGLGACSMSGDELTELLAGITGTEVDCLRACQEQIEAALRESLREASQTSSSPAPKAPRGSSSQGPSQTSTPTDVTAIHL

Compound | inhibition at 1 µM (CDK4/Cyclin D3 complex) | inhibition at 1 µM (CDK2/Cyclin A complex) | inhibition at 20 µM (FL-CHK1) | inhibition at 20 µM [1]
Nc1nc(Nc2ccc(S(N)(=O)=O)cc2)sc1-c1nc(-c2ccc(-c3ccc(Cl)cc3Cl)o2)cs1 | 25% | 21.4% | 3.3% | -2%
COc1ccc(-c2csc(-c3sc(Nc4ccc(S(N)(=O)=O)cc4)nc3N)n2)c(OC)c1 | -1.2% | 12.5% | -3.9% | 3%
COc1ccc(OC)c(-c2csc(-c3sc(Nc4ccc(S(N)(=O)=O)cc4)nc3N)n2)c1 | 41.2% | 28.4% | -2.3% | 8%
CCOC(=O)c1cc(-c2csc(-c3sc(Nc4ccc(S(N)(=O)=O)cc4)nc3N)n2)on1 | -13% | 29.8% | 1.1% | 3%
N#Cc1ccc(-c2nc(-c3sc(Nc4ccc(S(N)(=O)=O)cc4)nc3N)cs2)cc1 | 16.3% | 13.3% | 3.7% | 13%
Nc1nc(Nc2ccc(S(N)(=O)=O)cc2)sc1-c1nc(-c2ccc3c(c2)OCCO3)cs1 | 31.8% | 21.4% | 20.1% | 29%
Nc1nc(Nc2ccc(S(N)(=O)=O)cc2)sc1-c1nc(-c2ccc(OC(=O)c3ccccc3)cc2)cs1 | -27% | 20.7% | 4.4% | 8%
Nc1nc(Nc2ccc(S(N)(=O)=O)cc2)sc1-c1nc(C2C=C([N+](=O)[O-])C=CC2)cs1 (centres unmarked) | -28.6% | 17.8% | 10.8% | 30%
Cc1cc(-c2csc(-c3sc(Nc4ccc(S(N)(=O)=O)cc4)nc3N)n2)cc(C)c1O | 46% | 40.7% | 13.4% | 25%
Nc1nc(Nc2ccc(S(N)(=O)=O)cc2)sc1-c1nc(-c2c(Cl)c(Cl)nc(Cl)c2Cl)cs1 | 58% | 66.8% | 19.8% | 11%
Nc1nc(Nc2ccc(S(N)(=O)=O)cc2)sc1-c1nc(-c2ccc(CC(=O)O)s2)cs1 | 65% | 51.6% | 11.3% | 11%
Nc1nc(Nc2ccc(S(N)(=O)=O)cc2)sc1-c1nc(-c2cccc(OC(=O)c3ccccc3)c2)cs1 | -1.9% | 37.2% | 6.8% | 43%
COc1cc(OC)c(-c2csc(-c3sc(Nc4ccc(S(N)(=O)=O)cc4)nc3N)n2)c(O)c1Cl | 62.5% | 69.5% | 25.6% | 29%
Nc1nc(Nc2ccc(S(N)(=O)=O)cc2)sc1-c1nc(-c2ccc3oc4ccccc4c3c2)cs1 | 57.5% | 45.7% | 18.3% | 18%
Cn1cc(-c2csc(-c3sc(Nc4ccc(S(N)(=O)=O)cc4)nc3N)n2)cc1C(=O)C(Cl)(Cl)Cl | 14% | 23.2% | 3.3% | -4%
Nc1nc(Nc2ccc(S(N)(=O)=O)cc2)sc1-c1nc(-c2cc3cc(Cl)ccc3o2)cs1 | -15% | 16.6% | 13.6% | -4%

Continued, values first:

inhibition at 1 µM (CDK4/Cyclin D3 complex) | inhibition at 1 µM (CDK2/Cyclin A complex) | inhibition at 20 µM (FL-CHK1) | inhibition at 20 µM [1] | Compound
57.2% | 55.9% | 28.5% | 49% | Nc1nc(Nc2ccc(S(N)(=O)=O)cc2)sc1-c1nc(-c2ccc(O)c(O)c2)cs1
-8.9% | 25.5% | 7.8% | 12% | Nc1nc(Nc2ccc(S(N)(=O)=O)cc2)sc1-c1nc(-c2ccc3ccccc3c2)cs1
-28.2% | 17.6% | 13.1% | -2% | Nc1nc(Nc2ccc(S(N)(=O)=O)cc2)sc1-c1nc(-c2ccc(Cl)c([N+](=O)[O-])c2)cs1
10.9% | 18.5% | 4.4% | 27% | Nc1nc(Nc2ccc(S(N)(=O)=O)cc2)sc1-c1nc(-c2ccc(Cl)cc2)cs1
57.8% | 55.4% | 25.6% | 47% | Nc1nc(Nc2ccc(S(N)(=O)=O)cc2)sc1-c1nc(-c2ccccc2[N+](=O)[O-])cs1
-16.3% | 27.7% | 11% | 3% | Nc1nc(Nc2ccc(S(N)(=O)=O)cc2)sc1-c1nc(-c2ccc([N+](=O)[O-])cc2)cs1
-28% | 8.3% | 15.9% | 2% | Cc1cc(-c2csc(-c3sc(Nc4ccc(S(N)(=O)=O)cc4)nc3N)n2)ccc1Cl
-3.9% | -4.5% | 2.9% | -2% | Cc1onc(-c2ccccc2)c1-c1csc(-c2sc(Nc3ccc(S(N)(=O)=O)cc3)nc2N)n1
39.7% | 14.6% | 13.6% | 13% | Nc1nc(Nc2ccc(S(N)(=O)=O)cc2)sc1-c1nc(-c2ccc[nH]2)cs1
-5.3% | 12.4% | 17.5% | 38% | Nc1nc(Nc2ccc(S(N)(=O)=O)cc2)sc1-c1nc(-c2ccc(F)c(F)c2)cs1
-3.1% | 1.3% | 11.7% | 9% | Nc1nc(Nc2ccc(S(N)(=O)=O)cc2)sc1-c1nc(-c2ccc(Cl)c(Cl)c2)cs1
-13.5% | 19.6% | 0.2% | 50% | Cc1ccc(-c2csc(-c3sc(Nc4ccc(S(N)(=O)=O)cc4)nc3N)n2)c(C)c1
-0.3% | 17.6% | 16.4% | 15% | Nc1nc(Nc2ccc(S(N)(=O)=O)cc2)sc1-c1nc(-c2cccc(Br)c2)cs1
